According to patent publication US9771375B2, “Indazole compounds useful as ketohexokinase inhibitors” (JANSSEN PHARMACEUTICA NV, priority 2010, dated 2017):
Counter-ions that a name gives are not always drawn.

Biological target: KHK (Homo sapiens (Human), UniProt P50053)
Test: In Vitro KHK Enzyme Assay (HTMS detection of fructose-1-P)
Type: biochemical
Details: 100 μM ATP, 2 nM KHK, 60 min at 25° C., 12-point dose-response
Method: An enzymatic assay was developed to measure KHK-mediated conversion of D-fructose to Fructose-1-P (F-1-P) using High Throughput Mass Spectroscopy (HTMS) as a means of product detection. This assay served as a primary screen to evaluate the ability to inhibit KHK enzyme activity and it has been adapted to high throughput mass spectrometry (HTMS, BioTrove RapidFire™) format for higher throughput.
The compounds to be tested were dosed in 12-points concentration from 511 μM to 0.5 μM. […] The assay was carried out in 384-well plate format.

Sequence of KHK (P50053 whole entry): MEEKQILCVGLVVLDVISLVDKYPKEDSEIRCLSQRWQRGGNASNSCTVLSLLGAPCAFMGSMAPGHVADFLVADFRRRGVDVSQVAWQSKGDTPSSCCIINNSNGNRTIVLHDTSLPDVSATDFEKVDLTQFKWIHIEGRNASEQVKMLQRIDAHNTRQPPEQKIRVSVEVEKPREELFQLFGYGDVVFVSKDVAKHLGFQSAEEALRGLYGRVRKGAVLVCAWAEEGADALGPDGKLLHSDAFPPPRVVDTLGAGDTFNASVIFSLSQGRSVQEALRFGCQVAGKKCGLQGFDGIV

IC50: 3.2 µM
SMILES: Cc1nn(-c2ccccc2)c2cc(N3CCC(N4CCNCC4)CC3)ccc12 [Compound 57, 3-Methyl-1-phenyl-6-(4-piperazin-1-yl-piperidin-1-yl)-1H-indazole hydrochloride]
